Results as given in PubChem BioAssay (NCI).
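Grown in 96-well plates, cells were treated for 48 hours with each compound at five concentrations. Insufficient inhibition: endpoint recorded as highest concentration tested. At the TGI there is no net growth.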

Tests used:
Test in all cases: inhibition of tumour cell growth, NCI panel, 48 h
[1] = tested on: BT-549 breast
[2] = tested on: T-47D breast
[3] = tested on: TK-10 renal
[4] = tested on: SF-295 CNS
[5] = tested on: RPMI-8226 leukemia
[6] = tested on: UACC-257 melanoma
[7] = tested on: HCT-15 colon
[8] = tested on: KM12 colon
[9] = tested on: NCI-H226 lung
[10] = tested on: RXF 393 renal

Compound	TGI [1]	TGI [2]	TGI [3]	TGI [4]	TGI [5]	TGI [6]	TGI [7]	TGI [8]	TGI [9]	TGI [10]
CC12CC1C(c1cccc([N+](=O)[O-])c1)(c1cccc([N+](=O)[O-])c1)N=N2 (stereo unspecified)	45.8 µM	> 100 µM	> 100 µM	> 100 µM	35.9 µM	> 100 µM	44 µM	47.3 µM	> 100 µM	
C=C(C)[C@@]1(O[Si](C)(C)C)CCCC[C@@H]1CC(Sc1ccccc1)Sc1ccccc1		18.8 µM	29 µM	25.5 µM	49.3 µM	29.7 µM	28.6 µM	23.8 µM	32.2 µM	24.6 µM
OC1(c2ccc(Cl)cc2)c2ccc(CN3CCCC3)cc2C2=NCCN21 (stereo unspecified)	21.3 µM	38.5 µM	17.4 µM	29.5 µM	26 µM	25.1 µM	32.9 µM	27.6 µM		21.2 µM
COC(=O)C1(Cc2ccc3c(c2)CCC3)Cc2ccccc2C1=O (stereo unspecified)	41.7 µM	> 100 µM	55.9 µM	67.4 µM	58.7 µM	76 µM	> 100 µM	20.3 µM	50.5 µM	
Nc1nc(Nc2ccccc2)sc1C(=O)c1c[nH]c2ccccc12	29.8 µM	33.3 µM	11 µM		> 100 µM	22.6 µM	14.7 µM	24.4 µM	29.7 µM	23.1 µM
CC(C)CCn1nc(N)c2nc3ccccc3nc21	> 100 µM		> 100 µM	> 100 µM	> 100 µM	> 100 µM		> 100 µM	> 100 µM	> 100 µM
CSC(SC)=C1C(=O)N(c2ccccc2)N=C1C	81.9 µM		> 100 µM	99.6 µM		> 100 µM	> 100 µM	> 100 µM	87.1 µM	74.4 µM
O=C(CCc1cccc(O)c1)NCCCNC(=O)CCc1cccc(O)c1	> 100 µM	> 100 µM		> 100 µM	> 100 µM	> 100 µM	> 100 µM	> 100 µM		> 100 µM
Cc1cn([C@H]2C[C@](C)(CO)N(C)O2)c(=O)[nH]c1=O	> 100 µM	> 100 µM	> 100 µM	> 100 µM	> 100 µM	> 100 µM		> 100 µM	> 100 µM	> 100 µM
CCCOC(=O)NC(C)C(=O)NC(CCC(=O)NC(CCCC(N)C(=O)O)C(=O)NC(C)C(=O)O)C(=O)O (stereo unspecified)	37.9 µM	41.7 µM	> 100 µM	30.9 µM	32.2 µM		34.6 µM	27.4 µM		
N#CC(=N)c1ncn(-c2ccccc2N)c1N	> 100 µM	> 100 µM	> 100 µM	> 100 µM	> 100 µM	> 100 µM	> 100 µM	> 100 µM	> 100 µM	
O=C(O)CSC(NC(=O)C(C(F)(F)F)C(F)(F)F)(C(F)(F)F)C(F)(F)F	> 100 µM	> 100 µM	> 100 µM		> 100 µM	> 100 µM	> 100 µM			> 100 µM
